Laboratory results: patent publication US20230416299A1, “COMPOUND AND METHOD FOR THE TREATMENT AND DIAGNOSIS OF NEURODEGENERATIVE CONDITIONS” (Swansea University, priority 2013, published 2023)
Blank lines part the entries; values can stand above or below the molecule they belong to.

Columns and labels:
Lxrα = target: T1, Lxrα (Homo sapiens, UniProt Q13133); test: Lxr-responsive luciferase reporter assay (Lxre + Lxrα) in SN4741 neural cells; type: cell-based, mouse; conditions: for Lxrα activation, luciferase activity: 10 μM, 24 h
T1 construct: expressed in transfected cells; host or cells: SN4741 mouse neuronal cell line
T1 sequence (Q13133 1-447): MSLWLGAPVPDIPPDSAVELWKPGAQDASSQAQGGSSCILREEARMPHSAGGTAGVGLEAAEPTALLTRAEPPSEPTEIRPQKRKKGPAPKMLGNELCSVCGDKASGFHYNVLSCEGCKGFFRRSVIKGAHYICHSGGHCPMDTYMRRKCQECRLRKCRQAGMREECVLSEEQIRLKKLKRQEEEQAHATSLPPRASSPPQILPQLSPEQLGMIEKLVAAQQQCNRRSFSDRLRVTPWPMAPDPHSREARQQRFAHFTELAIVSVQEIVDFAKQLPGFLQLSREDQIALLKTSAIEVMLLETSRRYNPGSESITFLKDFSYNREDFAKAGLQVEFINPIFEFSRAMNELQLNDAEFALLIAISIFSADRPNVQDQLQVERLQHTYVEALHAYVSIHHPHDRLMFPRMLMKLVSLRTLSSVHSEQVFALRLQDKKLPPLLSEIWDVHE
From the text: (§1) Luciferase Reporter Assay.

Lxrβ = target: T2, Lxrβ (Homo sapiens, UniProt P55055); test: Lxr-responsive luciferase reporter assay (Lxre + Lxrβ) in SN4741 neural cells; type: cell-based, mouse; conditions: for Lxrβ activation, luciferase activity: SN4741 cells, 10 μM, 24 h
T2 construct: expressed in transfected cells; host or cells: SN4741 mouse neuronal cell line
T2 sequence (P55055 1-460): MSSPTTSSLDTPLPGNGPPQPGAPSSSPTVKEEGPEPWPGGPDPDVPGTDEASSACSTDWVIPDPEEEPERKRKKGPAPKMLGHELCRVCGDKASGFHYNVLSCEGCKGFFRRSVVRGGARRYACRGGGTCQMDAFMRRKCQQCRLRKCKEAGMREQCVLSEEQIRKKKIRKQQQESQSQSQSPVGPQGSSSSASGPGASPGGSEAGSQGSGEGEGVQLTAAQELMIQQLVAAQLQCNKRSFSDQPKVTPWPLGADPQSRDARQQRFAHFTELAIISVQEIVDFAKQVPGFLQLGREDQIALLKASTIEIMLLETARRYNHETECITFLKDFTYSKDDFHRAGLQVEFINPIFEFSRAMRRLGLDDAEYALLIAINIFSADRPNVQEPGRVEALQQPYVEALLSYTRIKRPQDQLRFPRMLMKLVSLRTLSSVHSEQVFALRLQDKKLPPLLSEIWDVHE
From the text: as §1

[1] = system: Islet-1:GFP transgenic zebrafish embryos; type: in vivo
Description: (§2) Quantitative PCR. Total RNA was extracted from SN4741 cells and zebrafish treated with the compounds of interest using the RNeasy Mini Kit (Qiagen), 1 μg was treated with RQ1 RNase-free DNase (Promega) and reverse transcribed using Superscript II Reverse Transcriptase (Invitrogen) and random primers (Invitrogen) (RT+ reaction). Parallel reactions without reverse transcriptase enzyme were done as a control (RT− reaction), and Sybergreen real-time quantitative PCR assays were performed. Expression levels were obtained by normalization with the value of the housekeeping gene encoding actin obtained for every sample in parallel assays.
Zebrafish Strain and Mainrenance Zebrafish were raised on a 14/10 h day/night cycle and were kept at 28.5° C. Islet-1:GFP transgenic embryos were obtained via natural spawning and staged in hours or days post fertilization (hpf and dpf) according to Kimmel et al). Embryos older than 24 hpf were treated with 0.03% phenylthiourea (PTU) to inhibit pigmentation. MO injections were performed using splice site specific zebrafish 1xr MO. MO injected embryos were immediately dechorionated and transferred to a 96 well plate and exposed to dimethyl sulfoxide (DMSO) treated or ligand treated medium.
Compound Exposure. Islet-1:GFP embryos were collected by natural mating and immediately (at 1 cell stage) dechorionated and transferred to a 96 well plate. Each of the compounds tested were obtained as 10 mM stock and diluted in embryo medium to a final concentration of 10 μM, and 200 μL was added to each well. DMSO or propan-2-ol treated embryo medium was taken as control. Ligand solutions were replaced every 12 h with fresh ligand solution prepared in PTU treated embryo medium. Embryos were collected at 48 hpf, fixed for 4 h at room temperature with 4% paraformaldehyde and then washed and kept in PBST. Immunocytochemistry was performed using an anti-GFP antibody and fluorescence was viewed and photographed using a Zeiss Axioplan compound microscope and a Zeiss Axiocam digital camera.

[2] = system: mouse E11.5 brain primary cultures; test: Mouse E11.5 brain primary cultures (Islet1+, active caspase 3+, BrdU, Nkx6.1 counts); type: cell-based; conditions: for Number of Islet1+ cells: wild type cultures, 3 DIV; for Number of active caspase-3+ cells: 10 μM 3β,7α-diHCA, 3βH,7O-CA, 25-HC, low concentrations of 3β,7β-diHCA, 3β-HCA
Description: Primary Brain Cultures. Brains from E11.5 mice were manually dissected, plated on poly-D-lysine (150,000 cells/cm2) and grown in serum-free N2 media consisting of 1:1 mixture of F12 and DMEM with 10 ng/mL insulin, 100 μg/mL apo-transferrin, 100 μM putrescine, 20 nM progesterone, 30 nM selenium, 6 mg/mL glucose, and 1 mg/mL BSA. Cells were treated for 3 days in vitro (DIV) with the compounds of interest, fixed with 4% PFA and processed for staining using appropriate antibodies.
For BrdU analysis, cells were treated with BrdU one hour after plating and media was replaced with fresh medium after 16 h. After a further 2 days in culture, cells were treated for 30 min with 2N HCl and then immunocytochemistry was performed to evaluate the number of double BrdU+;Islet1+ cells (a measure of motor neuron neurogenesis). Hoechst staining was performed by permeabilizing cells with a 0.3% Triton-X 100/PBS solution for 5 min followed by incubation with Hoechst 33258 (Sigma) for 10 min.
Antibodies and Detection Procedures. Cells were fixed in 4% PFA, washed in PBS and blocked in 5% normal goat serum/PBS for 1 h at room temperature. Primary antibodies were diluted in PBS (pH 7.4), 0.3% Triton X-100, 1% BSA and incubations were carried out overnight at +4° C. or at room temperature for 2 h. The antibodies used were anti-: BrdU (1:400; Abeam), Islet-1 (1:100; Developmental Studies Hybridoma Bank), cleaved caspase-3 (Asp175) (1:100; Cell Signaling Technology), tyrosine hydroxylase (TH;1:1000; Pel-Freeze) GABA (1:1,000; Sigma), Brn3a (1:250; Millipore), Nkx6.1 (1:200; Novus Biologicals), choline acetyltransferase (ChAT; 1:500; Millipore) and appropriate secondary antibodies (Jackson ImmunoResearch or Alexa). Cells positive for the corresponding marker were counted directly at the microscope at a magnification of 20 x. Cells were counted in every well, in eight consecutive fields (going from one side of the well to the other, passing through the center), in three different wells per experiment and in three different experiments per condition. Random pictures of the wells were taken for every condition to document the result, and representative pictures were subsequently selected to represent the quantitative data. Photos were acquired with a Zeiss Axioplan microscope and a Hamamatsu camera C4742-95 using the Openlab software.

Fxr = target: T3, Fxr (Homo sapiens, UniProt Q96RI1); test: Fxr-responsive luciferase reporter assay (Fxre + Fxr) in SN4741 neural cells; type: cell-based, mouse; conditions: 24 h
T3 construct: expressed in transfected cells; host or cells: SN4741 mouse neuronal cell line
T3 sequence (Q96RI1 1-486): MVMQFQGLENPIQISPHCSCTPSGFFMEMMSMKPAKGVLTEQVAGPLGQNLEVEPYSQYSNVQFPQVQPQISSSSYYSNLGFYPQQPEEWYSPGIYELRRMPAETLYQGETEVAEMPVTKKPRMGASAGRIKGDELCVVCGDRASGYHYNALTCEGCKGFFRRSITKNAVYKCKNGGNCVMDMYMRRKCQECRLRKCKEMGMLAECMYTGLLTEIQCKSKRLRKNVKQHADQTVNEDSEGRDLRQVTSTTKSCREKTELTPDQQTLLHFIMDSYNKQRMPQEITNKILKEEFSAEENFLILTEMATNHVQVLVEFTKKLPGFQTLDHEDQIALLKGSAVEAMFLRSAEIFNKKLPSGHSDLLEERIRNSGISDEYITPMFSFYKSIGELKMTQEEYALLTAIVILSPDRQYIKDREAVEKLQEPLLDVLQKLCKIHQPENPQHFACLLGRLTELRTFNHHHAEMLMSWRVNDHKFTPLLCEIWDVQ
Description: (§3) LC-ESI-MS on the LTQ-Orbitrap LC-ESI-MS and LC-ESI-MSn was performed using an Ultimate 3000 HPLC system (Dionex, Surrey, UK) linked to the ESI source of a LTQ-Orbitrap XL or LTQ-Orbitrap Velos (Thermo Fisher, San Jose, CA) mass spectrometer. Luciferase Reporter Assay. The ability of oxysterols and their acidic metabolites to activate several nuclear receptors i.e. Lxrα and β, Fxr, Vdr, Nurrl was tested in luciferase assays. Transient transfection studies were performed in the mouse neuronal cell line SN4741. This cell line was selected as the oxysterols and acidic metabolites tested were initially identified in CSF. Cells were plated in 24-well plates (5×10^5 cells/well) 24 hr before transfection and transfected with 1 μg of plasmid DNA/well complexed with 2 μL of Lipofectamine 2000 (Invitrogen). Cells were transfected with 400 ng of a Lxr-, Fxr-, Vdr- or Nurrl−responsive luciferase reporter construct, and 200 ng of Lxrα, Lxrβ, Fxr, Vdr or Nurrl. A reporter gene expressing the Renilla luciferase (pRL-TK, Promega) was co-transfected in all experiments as an internal control for normalization of transfection efficiency. After a 12 h incubation, the lipid/DNA mix was replaced with fresh 2.5% serum medium containing vehicle or appropriate ligand (10 μM), as specified in each experiment. […]

Lxrβ-LBD = target: T4, Lxrβ-LBD (Homo sapiens, UniProt P55055); test: LanthaScreen TR-FRET Lxrβ coactivator assay; type: binding
T4 construct: purchased Invitrogen
T4 sequence (P55055 222-460 limits assumed): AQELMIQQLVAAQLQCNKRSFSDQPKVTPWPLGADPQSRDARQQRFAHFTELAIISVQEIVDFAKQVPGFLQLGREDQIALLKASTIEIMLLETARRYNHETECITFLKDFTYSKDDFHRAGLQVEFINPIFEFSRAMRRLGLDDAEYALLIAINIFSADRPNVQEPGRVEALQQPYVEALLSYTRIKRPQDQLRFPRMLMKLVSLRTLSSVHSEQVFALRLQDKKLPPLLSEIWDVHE
From the text: Lxrβ Ligand Binding Assay. For Lxrβ ligand binding activity measurement, the applicants used the LANTHASCREEN™ TR-FRET Lxrβ Coactivator Assay (Invitrogen). The assay uses a terbium (Tb)-labeled anti-GST antibody, a fluorescein-labeled coactivator peptide and the Lxrβ-LBD tagged with glutathione-S-transferase (GST). Binding of the agonist/ligand to Lxrβ-LBD causes a conformational change that result in an increase in the affinity of the Lxrβ for the coactivator peptide. The close proximity of the fluorescently labeled coactivator peptide to the Tb-labeled antibody causes an increase in the TR-FRET signal intensity. The TR-FRET ratio of 520/495 was calculated using a Victor multi label reader with an excitation wavelength of 340 nm and emission wavelengths of 520 nm and 495 nm. The activational capacity of potential ligands was tested in a […] polypropylene plate, following the manufacturer's protocol.

[3] = system: Abca1, Abcg1 and Srebf1 transcript levels; test: Quantitative PCR of Lxr target genes in SN4741 cells; type: cell-based, mouse; conditions: SN4741 cells treated 3 h
Description: as §2

[4] = system: Nur-related factor 1 (Nurrl)/retinoid X receptor (Rxr) heterodimers; conditions: SN4741 cells, 10 μM
Description: as §3

SMILES: C[C@H](CCCC(C)(C)O)[C@H]1CC[C@H]2[C@@H]3CC=C4C[C@@H](O)CC[C@]4(C)[C@H]3CC[C@]12C [25-HC, cholest-5-ene-3β,25-diol]
- Lxrα activation, luciferase activity (Lxrα): activate Lxr
- Lxr luciferase activity with the Lxr antagonist GGPP (Lxrα; metabolite 10 μM + GGPP 10 μM): similarly blocked
- Lxrβ activation, luciferase activity (Lxrβ): activate Lxr
- Islet-GFP expression in cranial nerves ([1]; 10 μM, 48 hpf): modest increase in the levels of Islet-1
- Effect on active caspase-3+ cells with GGPP ([2]; GGPP 10 μM, 3β,7β-diHCA, 3β-HCA at 2 μM): GGPP sensitive manner
- Effect on Islet1+ cells in cultures from Lxrα−/−β−/− mice ([2]; Lxrα−/−β−/− cultures): blocked in cultures from Lxrα−/−β−/−animals
- Number of Islet1+ cells [2]: increase the number of Islet1+ oculomotor cells
- Effect on Islet1+ cells with Lxr antagonist GGPP ([2]; wt cultures, GGPP 10 μM): inhibited by the Lxr antagonist GGPP
- Number of active caspase-3+ cells ([2]; wt cultures): reduced the number of active caspase-3+ cells

SMILES: C[C@H](CCC(=O)O)[C@H]1CC[C@H]2[C@@H]3CC=C4C[C@@H](O)CC[C@]4(C)[C@H]3CC[C@]12C [3βH-Δ^5-BA, 3β-hydroxychol-5-en-24-oic acid]
- Fxr activation, luciferase activity (Fxr): also activated Fxr, but was less potent than CDCA

SMILES: CC(CCC[C@@H](C)[C@H]1CC[C@H]2[C@@H]3[C@@H](O)C=C4C[C@@H](O)CC[C@]4(C)[C@H]3CC[C@]12C)C(=O)O (stereo partly drawn) [3β,7β-diHCA, 3β,7β-dihydroxycholest-5-en-26-oic acid]
- Lxrα activation, luciferase activity (Lxrα): have the ability to activate both Lxrs
- Lxrβ activation, luciferase activity (Lxrβ): have the ability to activate both Lxrs
- Lxrβ activational capacity in combination with 22R-HC (Lxrβ; acid 10 μM + 22R-HC 10 μM): No additive effect was observed
- Competitor concentration with significant difference (p<0.05) from 10 μM 3β,7α-diHCA alone in TR-FRET Lxrβ coactivator assay (Lxrβ-LBD; added to 10 μM 3β,7α-diHCA): ≥ 2 µM
- Competition with 3β,7α-diHCA in TR-FRET Lxrβ coactivator assay (Lxrβ-LBD; increasing concentrations with 3β,7α-diHCA at its most potent concentration): the effect of 3β,7α-diHCA was reduced to that of the latter acids
- Abca1, Abcg1 and Srebf1 transcript levels [3]: induced transcription, but to a lesser extent
- Toxicity to zebrafish embryos ([1]; 10 μM in medium): deleterious toxic effect which impaired the survival of the fish
- Concentration at which toxicity is initiated (active caspase-3+ cells) ([2]; mouse, E11.5 mouse brain primary cultures, 3 days): 1 µM
- Number of Islet1+ cells [2]: caused the loss of Islet1+ cells in the cultures
- Number of active caspase-3+ cells ([2]; wt cultures): increased the number of active caspase-3+ cells

- Activation of DR5 element luciferase reporter [4]: activated this reporter
SMILES: CC1=C(/C=C/C(C)=C\C=C\C(C)=C\C(=O)O)C(C)(C)CCC1 [9-cis-RA, 9-cis-retinoic acid]
